Results reported in patent US10363239B2, “Method for inhibiting growth of cancer cells” (Pain Therapeutics, Inc., priority 2013, dated 2019).
Like-named read-outs stand apart in the source and are kept apart here.

How the values were obtained:
[1] = target: FLNA pentapeptide of SEQ ID NO: 1 (Bn-VAKGL) (Homo sapiens, UniProt P21333); assay: FITC-NLX-based FLNA screening assay (inhibition of FITC-naloxone binding to Bn-VAKGL on streptavidin plates); settings: 10 nM FITC-NLX
[2] = system: mu opiate receptor (MOR); assay: MOR agonist activity using [35S]GTPγS binding assay in striatal membranes; format: biochemical; settings: for MOR agonist activity ([35S]GTPγS binding), FLNA-Binding Compound as Agonist 1 μM + BFNA: 1 μM compound + 1 μM β-funaltrexamine
How it was run: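 Striatal membranes (200 μg) were preincubated 5 min at 30 °C in HEPES pH 7.5 with 100 mM NaCl, 1 mM MgCl2 and 0.5 nM [35S]GTPγS, then 5 min more with 0.1–10 μM compound. Gαo was immunoprecipitated and bound radioactivity counted by scintillation.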

[3] = read-out: Percent Binding Inhibition, FLNA-binding compound 0.01 μM
[4] = read-out: Percent Binding Inhibition, FLNA-binding compound 0.1 μM
[5] = read-out: Percent Binding Inhibition, FLNA-binding compound 1 μM
[6] = Series C-1, 0.1 μM compound, relative to DAMGO
[7] = Series C-1, 0.1 μM compound, [35S]GTPγS binding to Gαo, striatal membranes
[8] = Series C-1, 1 μM compound + 1 μM β-FNA
[9] = Series C-1, 1 μM compound + β-FNA, relative to DAMGO + BFNA
[10] = Series C-1, 1 μM compound, relative to DAMGO
[11] = Series C-1, 1 μM compound, [35S]GTPγS binding to Gαo, striatal membranes
[12] = FLNA-binding compound 0.01 μM, read-out: Percent Binding Inhibition
[13] = FLNA-binding compound 0.1 μM, read-out: Percent Binding Inhibition
[14] = FLNA-binding compound 1 μM, read-out: Percent Binding Inhibition
[15] = Series B, 0.1 μM compound, relative to DAMGO
[16] = Series B, 0.1 μM compound, [35S]GTPγS binding to Gαo, striatal membranes
[17] = Series B, 1 μM compound + 1 μM β-FNA
[18] = Series B, 1 μM compound + β-FNA, relative to DAMGO + BFNA
[19] = Series B, 1 μM compound, relative to DAMGO
[20] = Series B, 1 μM compound, [35S]GTPγS binding to Gαo, striatal membranes
[21] = 0.1 μM compound relative to DAMGO
[22] = 1 μM compound + BFNA relative to DAMGO + BFNA
[23] = 1 μM compound relative to DAMGO
[24] = Series C-2, 0.1 μM compound, relative to DAMGO
[25] = Series C-2, 0.1 μM compound, [35S]GTPγS binding to Gαo, striatal membranes
[26] = Series C-2, 1 μM compound + 1 μM β-FNA
[27] = Series C-2, 1 μM compound + β-FNA, relative to DAMGO + BFNA
[28] = Series C-2, 1 μM compound, relative to DAMGO
[29] = Series C-2, 1 μM compound, [35S]GTPγS binding to Gαo, striatal membranes

Row | Structure (SMILES) | inhibition at 0.01 µM [1, 3] [%] | inhibition at 0.1 µM [1, 4] [%] | inhibition at 1 µM [1, 5] [%] | inhibition at 0.01 µM [1, 12] [%] | inhibition at 0.1 µM [1, 13] [%] | inhibition at 1 µM [1, 14] [%] | % DAMGO (0.1 μM) [2, 15] [%] | MOR agonist activity, percent [35S]GTPγS binding at the stated compound concentration [2, 16] [%] | MOR agonist activity, percent [35S]GTPγS binding at the stated compound concentration [2, 17] [%] | % DAMGO + BFNA [2, 18] [%] | % DAMGO (1 μM) [2, 19] [%] | MOR agonist activity, percent [35S]GTPγS binding at the stated compound concentration [2, 20] [%] | also measured
1 | O=S(=O)(c1ccc(Br)cc1)N1CCC2(CC1)OCCN2S(=O)(=O)c1ccc(Br)cc1 [Compound C0025] | 37.2 | 41.4 | 45.1 | – | – | – | – | – | – | – | – | – | % DAMGO (0.1 μM) [2, 6]: 122.6%; Concentration of FLNA-Binding Compound as Agonist 0.1 μM [2, 7]: 235.7%; Concentration of FLNA-Binding Compound as Agonist 1 μM + BFNA [2, 8]: 80.2%; % DAMGO + BFNA [2, 9]: 182.7%; % DAMGO (1 μM) [2, 10]: 117.5%; Concentration of FLNA-Binding Compound as Agonist 1 μM [2, 11]: 320.7%
2 | COc1ccc(S(=O)(=O)N2CCC3(CC2)OCCN3S(=O)(=O)c2ccc(OC)c(OC)c2)cc1OC [Compound C0049] | – | – | – | 25.3 | 27.9 | 30.3 | – | – | – | – | – | – | % DAMGO (0.1 μM) [2, 6]: 73.5%; Concentration of FLNA-Binding Compound as Agonist 0.1 μM [2, 7]: 106.6%; Concentration of FLNA-Binding Compound as Agonist 1 μM + BFNA [2, 8]: 81.0%; % DAMGO + BFNA [2, 9]: 184.1%; % DAMGO (1 μM) [2, 10]: 90.1%; Concentration of FLNA-Binding Compound as Agonist 1 μM [2, 11]: 210.0%
3 | COc1c2c(cc3c1C(CC(=O)CCc1ccc(F)cc1)[N+](C)(C)CC3)OCO2 (stereo not drawn) [Compound B0018] | 37.2 | 43.7 | 47.6 | – | – | – | 70.3 | 118.8 | 45.6 | 69.1 | 53.5 | 143.0 | –
4 | COc1ccc(OCC(O)CN2CCOc3ccccc32)cc1 (stereo not drawn) [Compound A0076] | – | – | – | 36.1 | 40 | 44.9 | – | – | – | – | – | – | MOR agonist activity ([35S]GTPγS binding), FLNA-Binding Compound as Agonist 0.1 μM ([2]; 0.1 μM compound): 79.8%; % DAMGO (0.1 μM) [2, 21]: 46.4%; MOR agonist activity ([35S]GTPγS binding), FLNA-Binding Compound as Agonist 1 μM ([2]; 1 μM compound): 172.6%; MOR agonist activity ([35S]GTPγS binding), FLNA-Binding Compound as Agonist 1 μM + BFNA [2]: 41.2%; % DAMGO + BFNA [2, 22]: 119.4%; % DAMGO (1 μM) [2, 23]: 78.6%
5 | COc1c2c(cc3c1C(CC(=O)CCc1ccccc1)N(C)CC3)OCO2 (stereo not drawn) [Compound B0050] | – | – | – | 29.2 | 34.5 | 39.8 | 58.1 | 98.2 | 48.8 | 294.0 | 96.4 | 211.0 | –
6 | OC(COc1ccc(Br)c(F)c1)CN1CCCCC1 (stereo not drawn) [Compound A0058] | 28.9 | 36.6 | 42.1 | – | – | – | – | – | – | – | – | – | MOR agonist activity ([35S]GTPγS binding), FLNA-Binding Compound as Agonist 0.1 μM ([2]; 0.1 μM compound): 70.7%; % DAMGO (0.1 μM) [2, 21]: 45.3%; MOR agonist activity ([35S]GTPγS binding), FLNA-Binding Compound as Agonist 1 μM ([2]; 1 μM compound): 244.3%; MOR agonist activity ([35S]GTPγS binding), FLNA-Binding Compound as Agonist 1 μM + BFNA [2]: 59.9%; % DAMGO + BFNA [2, 22]: 150.1%; % DAMGO (1 μM) [2, 23]: 106.0%
7 | O=[N+]([O-])c1ccc(S(=O)(=O)N2CCC3(CC2)NCCO3)cc1 [Compound C0040] | – | – | – | 38.4 | 46.3 | 55.9 | – | – | – | – | – | – | % DAMGO (0.1 μM) [2, 24]: 93.1%; MOR agonist activity, percent [35S]GTPγS binding at the stated compound concentration [2, 25]: 145.8%; MOR agonist activity, percent [35S]GTPγS binding at the stated compound concentration [2, 26]: 90.4%; % DAMGO + BFNA [2, 27]: 277.3%; % DAMGO (1 μM) [2, 28]: 133.2%; MOR agonist activity, percent [35S]GTPγS binding at the stated compound concentration [2, 29]: 308.3%
8 | CC1CCC(C(C)C)C(OCC(O)CN2CC(C)OC(C)C2)C1 (stereo not drawn) [Compound A0032-1] | – | – | – | 35.6 | 43.9 | 50 | – | – | – | – | – | – | MOR agonist activity ([35S]GTPγS binding), FLNA-Binding Compound as Agonist 0.1 μM ([2]; 0.1 μM compound): 187.4%; % DAMGO (0.1 μM) [2, 21]: 95.5%; MOR agonist activity ([35S]GTPγS binding), FLNA-Binding Compound as Agonist 1 μM ([2]; 1 μM compound): 324.5%; MOR agonist activity ([35S]GTPγS binding), FLNA-Binding Compound as Agonist 1 μM + BFNA [2]: 224.5%; % DAMGO + BFNA [2, 22]: 303.8%; % DAMGO (1 μM) [2, 23]: 117.6%
9 | CC1CCC(C)C(OCC(O)CN2CC(C)OC(C)C2)C1 (stereo not drawn) [Compound A0022] | – | – | – | 41.9 | 49.7 | 56.8 | – | – | – | – | – | – | MOR agonist activity ([35S]GTPγS binding), FLNA-Binding Compound as Agonist 0.1 μM ([2]; 0.1 μM compound): 154.1%; % DAMGO (0.1 μM) [2, 21]: 90.0%; MOR agonist activity ([35S]GTPγS binding), FLNA-Binding Compound as Agonist 1 μM ([2]; 1 μM compound): 216.0%; MOR agonist activity ([35S]GTPγS binding), FLNA-Binding Compound as Agonist 1 μM + BFNA [2]: 28.0%; % DAMGO + BFNA [2, 22]: 53.7%; % DAMGO (1 μM) [2, 23]: 80.9%
10 | CC(=O)Nc1ccc(S(=O)(=O)N2CCC3(CC2)OCCN3S(=O)(=O)c2ccc(NC(C)=O)cc2)cc1 [Compound C0013] | 39.6 | – | – | – | 42.4 | 49.1 | – | – | – | – | – | – | % DAMGO (0.1 μM) [2, 6]: 91.0%; Concentration of FLNA-Binding Compound as Agonist 0.1 μM [2, 7]: 156.6%; Concentration of FLNA-Binding Compound as Agonist 1 μM + BFNA [2, 8]: 39.6%; % DAMGO + BFNA [2, 9]: 61.8%; % DAMGO (1 μM) [2, 10]: 108.9%; Concentration of FLNA-Binding Compound as Agonist 1 μM [2, 11]: 301.2%
11 | COc1ccc(C(=O)CC2c3c(cc4c(c3OC)OCO4)CC[N+]2(C)C)cc1 (stereo not drawn) [Compound B0024] | 34.8 | 43.4 | 47.7 | – | – | – | 93.2 | 155.8 | 20.2 | 58.2 | 116.7 | 285.9 | –
12 | COc1c2c(cc3c1C(CC(=O)c1ccc(C#N)cc1)[N+](C)(C)CC3)OCO2 (stereo not drawn) [Compound B0001] | 37.1 | 48.8 | 54.3 | – | – | – | 77.4 | 128.2 | 28.0 | 43.1 | 74.9 | 202.3 | –
13 | COc1c2c(cc3c1C(CC(=O)CCc1ccc(O)cc1)[N+](C)(C)CC3)OCO2 (stereo not drawn) [Compound B0028] | 38.2 | 42.8 | 49.1 | – | – | – | 103.5 | 199.1 | 55.0 | 125.3 | 131.0 | 357.7 | –
14 | CC(=O)c1ccc(C(=O)N2CCC3(CC2)OCCN3C(=O)c2ccc(C(C)=O)cc2)cc1 [Compound C0054] | – | – | – | 32.9 | 39.4 | 43.3 | – | – | – | – | – | – | % DAMGO (0.1 μM) [2, 6]: 47.0%; Concentration of FLNA-Binding Compound as Agonist 0.1 μM [2, 7]: 68.2%; Concentration of FLNA-Binding Compound as Agonist 1 μM + BFNA [2, 8]: 43.5%; % DAMGO + BFNA [2, 9]: 98.9%; % DAMGO (1 μM) [2, 10]: 54.5%; Concentration of FLNA-Binding Compound as Agonist 1 μM [2, 11]: 127.0%
15 | COc1cc(F)ccc1C(=O)CC1c2c(cc3c(c2OC)OCO3)CC[N+]1(C)C (stereo not drawn) [Compound B0007] | 43.6 | 53.1 | 57.3 | – | – | – | 95.3 | 168.3 | 64.5 | 98.2 | 86.1 | 223.3 | –
16 | CC1CCC(C(C)C)C(OCC(O)CN2CCN(CCN3CCOCC3)CC2)C1 (stereo not drawn) [Compound A0011] | – | – | – | 45.7 | 51.1 | 52.8 | – | – | – | – | – | – | MOR agonist activity ([35S]GTPγS binding), FLNA-Binding Compound as Agonist 0.1 μM ([2]; 0.1 μM compound): 236.3%; % DAMGO (0.1 μM) [2, 21]: 158.2%; MOR agonist activity ([35S]GTPγS binding), FLNA-Binding Compound as Agonist 1 μM ([2]; 1 μM compound): 287.5%; MOR agonist activity ([35S]GTPγS binding), FLNA-Binding Compound as Agonist 1 μM + BFNA [2]: 47.0%; % DAMGO + BFNA [2, 22]: 177.4%; % DAMGO (1 μM) [2, 23]: 124.9%
17 | COc1ccc(S(=O)(=O)N2CCC3(CC2)NCCC(=O)N3)cc1 [Compound C0142M] | 35.1 | 39.4 | 56 | – | – | – | – | – | – | – | – | – | % DAMGO (0.1 μM) [2, 24]: 97.8%; MOR agonist activity, percent [35S]GTPγS binding at the stated compound concentration [2, 25]: 143.7%; MOR agonist activity, percent [35S]GTPγS binding at the stated compound concentration [2, 26]: 98.7%; % DAMGO + BFNA [2, 27]: 251.1%; % DAMGO (1 μM) [2, 28]: 95.2%; MOR agonist activity, percent [35S]GTPγS binding at the stated compound concentration [2, 29]: 192.5%
